Results reported in US20260092054A1, “FUSED RING COMPOUND AND PHARMACEUTICAL CONTAINING SAME” (KAKEN PHARMACEUTICAL CO., LTD., priority 2022, published 2026).

What was measured:
human STAT6/pIL-4Rα = biological target: T1, human STAT6/pIL-4Rα (Homo sapiens, UniProt P42226); assay: Binding inhibitory activity between human STAT6/pIL-4Rα by fluorescence polarization method; conditions: rhSTAT6 (123-658) / FAM-pIL-4Rα peptide
T1 construct: histidine tag
T1 sequence (P42226 123-658): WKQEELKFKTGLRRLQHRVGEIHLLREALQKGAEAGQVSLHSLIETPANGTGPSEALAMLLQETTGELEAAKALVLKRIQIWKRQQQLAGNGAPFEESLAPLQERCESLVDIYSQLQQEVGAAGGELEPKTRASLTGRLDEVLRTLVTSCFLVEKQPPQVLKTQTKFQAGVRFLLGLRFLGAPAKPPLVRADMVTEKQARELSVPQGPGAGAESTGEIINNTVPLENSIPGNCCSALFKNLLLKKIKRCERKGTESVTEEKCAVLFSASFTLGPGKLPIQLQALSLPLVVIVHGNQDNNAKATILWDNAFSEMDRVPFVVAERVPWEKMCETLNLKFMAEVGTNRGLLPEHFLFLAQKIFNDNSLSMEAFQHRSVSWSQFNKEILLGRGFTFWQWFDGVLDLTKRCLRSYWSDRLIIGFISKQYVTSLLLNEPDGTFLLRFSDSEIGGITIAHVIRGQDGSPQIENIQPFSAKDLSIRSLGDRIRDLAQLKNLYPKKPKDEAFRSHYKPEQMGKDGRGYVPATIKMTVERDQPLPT
Method: Test Example 1: Measurement of Binding Inhibitory Activity Between Human STAT6/pIL-p 4Rα by Fluorescence Polarization Method
1) Construction of Histidine Tag-Fused Recombinant Human STAT6 (123 to 658 Region)
A histidine tag-fused recombinant human STAT6 (hereinafter referred to as rhSTAT6) expression vector [plasmid DNA in which a nucleic acid sequence containing human STAT6 (123-658 region) was inserted into a pET28a(+) vector (Novagen)] was inserted into E. coli, and the cells were cultured overnight under culturing conditions at 17° C. with IPTG treatment. After disrupting E. coli with a high-pressure homogenizer (EmulsiFlex-C3, manufactured by AVESTIN, Inc.), affinity purification using Ni-NTA agarose (manufactured by Qiagen), cation exchange chromatography using HiTrap® CM-FF (manufactured by GE healthcare), and gel filtration chromatography using Superdex® 200 10/300GL (manufactured by GE healthcare) were performed to obtain rhSTAT6.
2) Measurement of Binding Inhibitory Activity Between Human STAT6/pIL-4Rα by Fluorescence Polarization Method
A DMSO solution of the example compound was diluted with an assay buffer [for example, a buffer containing 50 mmol/L NaCl, 10 mmol/L HEPES (pH 7.0), 1 mmol/L DTT, 1 mmol/L EDTA, and 0.01 vol % NP-40, and the like] to prepare a compound-added solution. The DMSO concentration in the compound addition solution was adjusted to 1 or 2 vol %. 10 μL of the compound addition solution and an assay buffer containing 1 or 2 vol % DMSO were added to each well of a 384-well plate. 5 μL of an assay buffer solution containing rhSTAT6 (rhSTAT6 concentration: for example, 1 μmol/L) or an assay buffer was added to each well of a 384-well plate. After leaving the plate at room temperature for 30 minutes in the dark, 5 μL of an assay buffer solution (FAM-pIL-4Rp concentration: for example, 80 nmol/L) containing FAM-labeled phosphorylated IL-4Rα peptide (sequence: FAM-Ala-pTyr-Lys-Pro-Phe-Gln-Asp-Leu-IIe-NH2) (hereinafter, FAM-pIL-4Rp) or an assay buffer containing 2 vol % DMSO was added to each well of the 384-well plate. The mixture was left to stand at room temperature for 30 minutes in the dark, and then centrifuged (200 g, 1 minute, room temperature). Fluorescence polarization values were measured using Infinite (registered trademark) F500 (manufactured by Tecan Japan Co., Ltd.) (Excitation: 485 nm, Emission: 535 nm). The inhibition rate of each Example compound was calculated according to the following formula using the fluorescence polarization value (A) when rhSTAT6 and FAM-pIL-4Rp were added without adding the Example compound, the fluorescence polarization value (B) when FAM-pIL-4Rp was added without adding the Example compound and rhSTAT6, and the fluorescence polarization value (C) when each Example compound, rhSTAT6, and FAM-pIL-4Rp were added.
In the evaluation of each example compound, the 50% inhibitory concentration (IC50) of each example compound was calculated from a linear function equation of a straight line connecting two points sandwiching 50%.

human STAT6 = assay: Human STAT6 dependent reporter activity (IL-4 stimulated STAT6 reporter assay using STAT6-HEK293 cells); assay type: cell-based; conditions: Homo sapiens, IL-4 stimulation, luciferase activity, read-out: Inhibition rate (%); for inhibition at 0.1 µM: compound 0.1 μmol/L; for inhibition at 1 µM: compound 1 μmol/L
Method: Test Example 2: Measurement of Human STAT6 Dependent Reporter Activity
1) Construction of Human STAT6-HEK293 Cells
HEK 293 cells maintenance cultured by [Penicillin-Streptomycin (Thermo Fisher Scientific) and FBS, 1 vol % and 10 vol % respectively added to DMEM high glucose (Thermo Fisher Scientific)](manufactured by ATCC) were collected, and suspended in 10 mL of 0.5% BSA/PBS. 1×10^6 cells were collected, the supernatant was removed by centrifuging, and the cells were suspended in 100 μL of Nucleofector solution V (manufactured by Lonza K.K.). 2 μg of STAT6 vector [plasmid DNAs incorporating human STAT6 sequences in pcDNA3.1 (Invitrogen)] was added, and the STAT6 vector was introduced into the HEK293 cells using the program Q-001 initially registered in the Nucleofector®2b. A cell line (STAT6-HEK293 cells) consistently expressing STAT6 was acquired by selecting resistant cells in a medium containing Geneticin® (manufactured by Thermo Fisher Scientific). 2) STAT6 reporter assay using STAT6-HEK293 cells 3×10^6 STAT6-HEK293 cells maintained in assay medium [culture medium supplemented with 1 vol % Geneticin®] were harvested and seeded in a 10 cm dish. 3 μg of a STAT6 reporter vector [plasmid in which a sequence containing a STAT6 binding sequence and a C/EBP binding sequence in tandem was incorporated into pGL4.27 (manufactured by Promega Corporation)] and 9 μL of FuGENE® HD transfection reagent (manufactured by Promega Corporation) were added to 500 μL of Opti-MEM® (manufactured by Thermo Fisher Scientific) to prepare transfection solutions. The transfection solution was vortexed and left to stand for about 5 minutes, then added dropwise to the STAT6-HEK293 cells, which were then cultured overnight in a C02 incubator to produce STAT6 reporter cells.
The prepared STAT6 reporter cells were seeded on B&W isoplate-96 TC (PerkinElmer Japan Co., Ltd.) (3×10^4 cells/50 μL/well) and cultured overnight in a C02 incubator (37° C., 5% C02). 50 μL of assay medium was added to each well instead of the STAT6 reporter cells. The compound addition solution was prepared by diluting the DMSO solution of the example compound 250-fold using the assay medium. 20 μL of compound addition solution or 0.4 vol % DMSO-containing assay medium was added to the plate, and the plate was then cultured in a CO2 incubator for 1 hour. 10 μL of 80 ng/mL human IL-4 solution (Peprotech) or assay medium was added to each well, and the cells were cultured in a CO2 incubator for 6 hours.
STAT6 reporter activity was measured using the Bright-Glo® Luciferase Assay System (Promega). 100 μL of Bright-Glo® reagent was added to each well, and luciferase activity was measured using Infinite® F500. The inhibition rate of each Example compound was calculated by the following formula using the luciferase activity value (G) when no Example compound was added and stimulation with IL-4 was performed, the luciferase activity value (H) when no Example compound was added and stimulation with IL-4 was not performed, and the luciferase activity value (I) when each Example compound was treated and stimulation with IL-4 was performed.
Note that the viable cell rate under each condition was 70% or more, and it was determined that the luciferase activity inhibitory activity of each example compound was appropriately evaluated.

Row | SMILES | IC50 (human STAT6/pIL-4Rα) [nM] | inhibition at 0.1 µM (human STAT6) [%] | inhibition at 1 µM (human STAT6) [%]
1 | CCn1c(-c2ccc(N3CCCC3=O)cc2)nc2cc(Br)cc(C(=O)Nc3cccc(C(N)=O)c3)c21 [Ex. 4] | 740 | 12 | 64
2 | CCn1c(-c2ccc(-n3cccn3)cc2)nc2cc(Br)cc(C(=O)Nc3cccc(C(N)=O)c3)c21 [Ex. 5] | 660 | 8 | 63
3 | CCn1c(-c2ccc(-n3nccn3)cc2)nc2cc(Br)cc(C(=O)Nc3cccc(C(N)=O)c3)c21 [Ex. 6] | 1140 | -1 | 52
4 | CCn1c(-c2ccc3c(c2)CCN3C(C)=O)nc2cc(Br)cc(C(=O)Nc3cccc(C(N)=O)c3)c21 [Ex. 8] | 410 | 2 | 43
5 | CCn1c(-c2ccc(-n3cnn(C)c3=O)cc2)cc2cc(Br)cc(C(=O)Nc3ccc(F)c(C(N)=O)c3)c21 [Ex. 9] | 450 | 10 | 76
6 | CCn1c(-c2ccc(-n3c(C)nn(C)c3=O)cc2)cc2cc(C(F)(F)F)cc(C(=O)Nc3cccc(C(N)=O)c3F)c21 [Ex. 15] | 250 | 97 | 100
7 | COCCn1c(-c2ccc(-n3c(C)nn(C)c3=O)cc2)cc2cc(C(F)(F)F)cc(C(=O)Nc3ccc(F)c(C(N)=O)c3)c21 [Ex. 16] | 240 | 72 | 100
8 | CCn1c(-c2ccc(-n3c(C)nn(C)c3=O)cc2)cc2cccc(C(=O)Nc3ccc(F)c(C(N)=O)c3)c21 [Ex. 17] | 350 | 81 | 99
9 | CCn1c(-c2ccc(-n3c(C)nn(C)c3=O)cc2)cc2cc(F)cc(C(=O)Nc3ccc(F)c(C(N)=O)c3)c21 [Ex. 18] | 350 | 80 | 99
10 | CCn1c(-c2ccc(-n3c(C)nn(C)c3=O)cn2)cc2cc(C(F)(F)F)cc(C(=O)Nc3cccc(C(N)=O)c3F)c21 [Ex. 19] | 360 | 42 | 98
11 | CCn1c(-c2ccc(-n3c(C)nn(C)c3=O)nc2)cc2cc(C(F)(F)F)cc(C(=O)Nc3ccc(F)c(C(N)=O)c3)c21 [Ex. 20] | 660 | 50 | 98
12 | CCn1c(-c2ccc(-n3c(C)nn(C)c3=O)cc2)cc2ccnc(C(=O)Nc3ccc(F)c(C(N)=O)c3)c21 [Ex. 21] | 380 | 73 | 98
13 | CCn1c(-c2ccc(-n3c(C)nn(C)c3=O)cc2)cc2ccnc(C(=O)Nc3cccc(C(N)=O)c3F)c21 [Ex. 22] | 320 | 89 | 99
14 | CCn1c(-c2ccc(-n3c(C)nn(C)c3=O)cc2)cc2cc(C(F)(F)F)nc(C(=O)Nc3ccc(F)c(C(N)=O)c3)c21 [Ex. 23] | 240 | 86 | 100
15 | Cc1nn(C)c(=O)n1-c1ccc(-c2cc3ccnc(C(=O)Nc4ccc(F)c(C(N)=O)c4)c3n2CC2CC2)cc1 [Ex. 24] | 320 | 54 | 98
16 | CCn1c(-c2ccc(-n3cnn(C)c3=O)cc2)cc2ccnc(C(=O)Nc3ccc(F)c(C(N)=O)c3)c21 [Ex. 25] | 280 | 64 | 97
17 | COCCn1c(-c2ccc(-n3c(C)nn(C)c3=O)cc2)cc2ccnc(C(=O)Nc3cccc(C(N)=O)c3F)c21 [Ex. 26] | 390 | 63 | 98
18 | COCCn1c(-c2ccc(-n3c(C)nn(C)c3=O)cc2)cc2ccnc(C(=O)Nc3ccc(F)c(C(N)=O)c3)c21 [Ex. 27] | 350 | 52 | 96
19 | CCn1c(-c2ccc(-n3c(C)nn(C)c3=O)cc2)cc2c(C(F)(F)F)ccc(C(=O)Nc3ccc(F)c(C(N)=O)c3)c21 [Ex. 30] | 270 | 76 | 100
20 | CCn1c(-c2ccc(N3CCOCC3=O)cc2)cc2cc(C(F)(F)F)cc(C(=O)Nc3ccc(F)c(C(N)=O)c3)c21 [Ex. 31] | 460 | 80 | 97
21 | CCn1c(-c2ccc(-n3c(C)nn(C)c3=O)cc2)cc2cc(C)cc(C(=O)Nc3ccc(F)c(C(N)=O)c3)c21 [Ex. 32] | 420 | 91 | 100
22 | COCCn1c(-c2ccc(-n3c(C)nn(C)c3=O)cc2)cc2cc(C(F)(F)F)cc(C(=O)Nc3cccc(C(N)=O)c3F)c21 [Ex. 33] | 100 | 75 | 100
23 | Cc1nn(C)c(=O)n1-c1ccc(-c2cc3cccc(C(=O)Nc4ccc(F)c(C(N)=O)c4)c3n2CC2CC2)cc1 [Ex. 34] | 610 | 39 | 96
